Laboratory results: US6706663B2, “Herbicidal 3-heterocyclic substituted benzisothiazole and benzisoxazole compounds” (Wyeth, priority 2000, dated 2004)

Assays:
[1] = test system: ABUTH (Abutilon theophrasti); experiment: Postemergence herbicidal evaluation; type: in vivo, Medic.
In short: (§1)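 Seedlings grown about two weeks in flats, sprayed, then kept under standard greenhouse care. Rated visually 4–5 weeks after treatment on a 0–9 scale (stand, vigour, malformation, size, chlorosis, overall appearance) relative to untreated control; repeat tests averaged.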

[2] = test system: AMBEL (Ambrosia artemisifolia); experiment: Postemergence herbicidal evaluation; type: in vivo, L.
In short: as §1

[3] = test system: CASOB (Cassia obtusifolia); experiment: Postemergence herbicidal evaluation; type: in vivo, L.
In short: as §1

[4] = test system: CHEAL (Chenopodium album); experiment: Postemergence herbicidal evaluation; type: in vivo, L.
In short: as §1

[5] = test system: GALAP (Galium aparine); experiment: Postemergence herbicidal evaluation; type: in vivo
In short: as §1

[6] = test system: IPOHE (Ipomoea hederacea); experiment: Postemergence herbicidal evaluation; type: in vivo, (L.) Jacq.
In short: as §1

[7] = test system: GLXMAW (Soybean, Williams); experiment: Postemergence herbicidal evaluation; type: in vivo, Glycine max, (L.) Merr. cv Williams
In short: as §1

[8] = test system: ORYSAT (Rice, Tebonnet); experiment: Postemergence herbicidal evaluation; type: in vivo, Oryza sativa, (L.) Tebonnet
In short: as §1

[9] = test system: ZEAMX (Corn, Field); experiment: Postemergence herbicidal evaluation; type: in vivo, Zea mays, L.
In short: as §1

[10] = test system: GALAP (Galium aparine); experiment: Preemergence herbicidal evaluation; type: in vivo; conditions: preemergence, rated 4-5 weeks after treatment
In short: (§2)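 Seeds planted in potting soil cups and sprayed preemergence with aqueous acetone compound solution. Greenhouse-grown; rated 4–5 weeks after treatment on a 0-9 visual scale (stand, vigor, malformation, size, chlorosis, appearance) versus control.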

[11] = test system: ECHCG (Echinochloa crus-galli); experiment: Preemergence herbicidal evaluation; type: in vivo, (L.) Beau; conditions: preemergence, rated 4-5 weeks after treatment
In short: as §2

[12] = test system: SETVI (Setaria viridis); experiment: Preemergence herbicidal evaluation; type: in vivo, (L.) Beau; conditions: preemergence, rated 4-5 weeks after treatment
In short: as §2

[13] = test system: ORYSAT (Rice, Tebonnet); experiment: Preemergence herbicidal evaluation; type: in vivo, Oryza sativa, (L.) Tebonnet; conditions: preemergence, rated 4-5 weeks after treatment
[14] = test system: TRZAWR (Wheat, Winter, cv Riband); experiment: Preemergence herbicidal evaluation; type: in vivo, Triticum aestivum; conditions: preemergence, rated 4-5 weeks after treatment
In short: as §2

[15] = test system: ECHORC (Echinochloa oryzoides); experiment: Flooded paddy, postemergence weed control; type: in vivo, Echinochloa oryzoides (Ard.) Fritsch.; conditions: postemergence weeds, rated 3-4 weeks after treatment
In short: (§3)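 Weeds 3–5 cm tall and rice at 1.5–2.5 leaf stage in containers flooded 1.5–3 cm deep; compounds in 50/50 v/v aqueous/acetone injected into flood water at about 0.0320–0.2500 kg/ha. Greenhouse-held; visual 0–9 rating versus untreated control after three to four weeks.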

[16] = test system: CYPIR (Cyperus iria); experiment: Flooded paddy, postemergence weed control; type: in vivo; conditions: postemergence weeds, rated 3-4 weeks after treatment
Text: Results of herbicide evaluation are expressed on a rating scale (0-9). The scale is based upon a visual observation of plant stand, vigor, malformation, size, chlorosis and overall plant appearance as compared with a control.
Plastic containers containing weeds which are 3 to 5 cm tall and rice seedlings at the 1.5 to 2.5 leaf stage are flooded with water. The water is maintained at 1.5 to 3 cm above the soil surface for the duration of the experiment. Test compounds are applied as aqueous/acetone mixtures 50/50 v/v directly into the flood water to provide the equivalent of about 0.0320 to 0.2500 kg/ha of active ingredient. The treated containers are placed on greenhouse benches and cared for in accordance with conventional greenhouse procedures. Three to four weeks after treatment, the test is terminated and each container is examined and herbicidal effect rated according to the rating system provided in Example 87. The compounds evaluated are identified in Example 87 and plant species used are identified in Example 89.

[17] = test system: CYPSE (Cyperus serotinus); experiment: Flooded paddy, postemergence weed control; type: in vivo, Rottb.; conditions: postemergence weeds, rated 3-4 weeks after treatment
In short: as §3

[18] = test system: MOOVA (Monochoria vaginalis); experiment: Flooded paddy, postemergence weed control; type: in vivo, Presl.; conditions: postemergence weeds, rated 3-4 weeks after treatment
In short: as §3

[19] = test system: SAGPY (Sagittaria pygmaea); experiment: Flooded paddy, postemergence weed control; type: in vivo, L.; conditions: postemergence weeds, rated 3-4 weeks after treatment
In short: as §3

[20] = test system: ORYSAT (Rice, Tebonnet); experiment: Flooded paddy, post-transplant and postemergence rice tolerance; type: in vivo, Oryza sativa, (L.) Tebonnet; conditions: post-transplant rice, rated 3-4 weeks after treatment
In short: as §3

Cn1c(C(F)(F)F)cc(=O)n(-c2ccc3snc(-c4ccsc4)c3c2)c1=O [Compound 1, 1-methyl-3-[3-(3-thienyl)-1,2-benzisothiazol-5-yl]-6-(trifluoromethyl)uracil]
6.8: Postemergence herbicidal rating, GLXMAW ([7]; rate 0.0320 kg/ha)
7.8: Postemergence herbicidal rating, GLXMAW ([7]; rate 0.1250 kg/ha)
2.0: herbicide rating (0-9) CYPSE ([17]; 0.0320 kg/ha into flood water)
3.5: Postemergence herbicidal rating, ORYSAT ([8]; rate 0.0320 kg/ha) | Postemergence herbicidal rating, ORYSAT ([8]; rate 0.0620 kg/ha) | TRZAWR preemergence herbicidal rating ([14]; Rate 0.0620 kg/ha)
6.0: Postemergence herbicidal rating, ZEAMX ([9]; rate 0.1250 kg/ha)
5.8: Postemergence herbicidal rating, ZEAMX ([9]; rate 0.0620 kg/ha)
5.0: Postemergence herbicidal rating, GALAP ([5]; rate 0.0320 kg/ha) | Postemergence herbicidal rating, ORYSAT ([8]; rate 0.1250 kg/ha) | ORYSAT preemergence herbicidal rating ([13]; Rate 0.0620 kg/ha) | ORYSAT preemergence herbicidal rating ([13]; Rate 0.1250 kg/ha) | TRZAWR preemergence herbicidal rating ([14]; Rate 0.2500 kg/ha)
7.0: Postemergence herbicidal rating, GLXMAW ([7]; rate 0.0620 kg/ha) | GALAP preemergence herbicidal rating ([10]; Rate 0.1250 kg/ha) | herbicide rating (0-9) CYPSE ([17]; 0.1250 kg/ha into flood water) | herbicide rating (0-9) SAGPY ([19]; 0.0620 kg/ha into flood water) | herbicide rating (0-9) ORYSAT (rice tolerance) ([20]; 0.0320 kg/ha into flood water) | herbicide rating (0-9) ORYSAT (rice tolerance) ([20]; 0.0620 kg/ha into flood water) | herbicide rating (0-9) ORYSAT (rice tolerance) ([20]; 0.1250 kg/ha into flood water)
8.0: ECHCG preemergence herbicidal rating ([11]; Rate 0.1250 kg/ha)
5.5: Postemergence herbicidal rating, CASOB ([3]; rate 0.0320 kg/ha) | Postemergence herbicidal rating, ZEAMX ([9]; rate 0.0320 kg/ha)
7.5: Postemergence herbicidal rating, CASOB ([3]; rate 0.0620 kg/ha) | Postemergence herbicidal rating, GALAP ([5]; rate 0.1250 kg/ha)
6.5: Postemergence herbicidal rating, GALAP ([5]; rate 0.0620 kg/ha) | GALAP preemergence herbicidal rating ([10]; Rate 0.2500 kg/ha) | ORYSAT preemergence herbicidal rating ([13]; Rate 0.2500 kg/ha)
4.0: TRZAWR preemergence herbicidal rating ([14]; Rate 0.1250 kg/ha) | herbicide rating (0-9) CYPSE ([17]; 0.0620 kg/ha into flood water) | herbicide rating (0-9) SAGPY ([19]; 0.0320 kg/ha into flood water)
7.3: ECHCG preemergence herbicidal rating ([11]; Rate 0.0620 kg/ha)
9.0: Postemergence herbicidal rating, ABUTH ([1]; rate 0.0320 kg/ha) | Postemergence herbicidal rating, ABUTH ([1]; rate 0.0620 kg/ha) | Postemergence herbicidal rating, ABUTH ([1]; rate 0.1250 kg/ha) | Postemergence herbicidal rating, AMBEL ([2]; rate 0.0320 kg/ha) | Postemergence herbicidal rating, AMBEL ([2]; rate 0.0620 kg/ha) | Postemergence herbicidal rating, AMBEL ([2]; rate 0.1250 kg/ha) | Postemergence herbicidal rating, CASOB ([3]; rate 0.1250 kg/ha) | Postemergence herbicidal rating, CHEAL ([4]; rate 0.0320 kg/ha) | Postemergence herbicidal rating, CHEAL ([4]; rate 0.0620 kg/ha) | Postemergence herbicidal rating, CHEAL ([4]; rate 0.1250 kg/ha) | Postemergence herbicidal rating, IPOHE ([6]; rate 0.0320 kg/ha) | Postemergence herbicidal rating, IPOHE ([6]; rate 0.0620 kg/ha) | Postemergence herbicidal rating, IPOHE ([6]; rate 0.1250 kg/ha) | GALAP preemergence herbicidal rating ([10]; Rate 0.0620 kg/ha) | ECHCG preemergence herbicidal rating ([11]; Rate 0.2500 kg/ha) | SETVI preemergence herbicidal rating ([12]; Rate 0.0620 kg/ha) | SETVI preemergence herbicidal rating ([12]; Rate 0.1250 kg/ha) | SETVI preemergence herbicidal rating ([12]; Rate 0.2500 kg/ha) | herbicide rating (0-9) ECHORC ([15]; 0.0320 kg/ha into flood water) | herbicide rating (0-9) ECHORC ([15]; 0.0620 kg/ha into flood water) | herbicide rating (0-9) ECHORC ([15]; 0.1250 kg/ha into flood water) | herbicide rating (0-9) CYPIR ([16]; 0.0320 kg/ha into flood water) | herbicide rating (0-9) CYPIR ([16]; 0.0620 kg/ha into flood water) | herbicide rating (0-9) CYPIR ([16]; 0.1250 kg/ha into flood water) | herbicide rating (0-9) MOOVA ([18]; 0.0320 kg/ha into flood water) | herbicide rating (0-9) MOOVA ([18]; 0.0620 kg/ha into flood water) | herbicide rating (0-9) MOOVA ([18]; 0.1250 kg/ha into flood water) | herbicide rating (0-9) SAGPY ([19]; 0.1250 kg/ha into flood water)
